Test results reported in patent US5039665A, “Use of fructose-1,6-diphosphate for treating myocardial infarction” (priority 1990, dated 1991).

How the values were obtained:
[1] = tested on: rabbit ileum; assay: force of contraction of isolated rabbit ileum; details: added to perfusate
Text: (§1) To allow for a broader and more complete interpretation of the results, a small paragraph will be devoted to the ability of FDP to cross the cellular membranes.

[2] = tested on: erythrocytes; assay: incubation of erythrocytes: ATP and 2-3 DPG content; format: cell-based; details: equimolar, same conditions
Text: as §1

[3] = tested on: heart preparation; details: infusion of Locke's solution plus sugar; cited from earlier work

Structure (SMILES)	force of contraction [1]	ATP content in the erythrocytes [2]	amplitude and frequency of heart beats, lactic acid, pH and potassium during recovery [3]
O=C[C@H](O)[C@@H](O)[C@H](O)[C@H](O)COP(=O)(O)O [glucose-6-phosphate]	fail to produce the same effect	failed to increase the ATP content	
O=P(O)(O)O [inorganic phosphate]	fail to produce the same effect	failed to increase the ATP content	
OC[C@H]1O[C@@](CO)(O[C@H]2O[C@H](CO)[C@@H](O)[C@H](O)[C@H]2O)[C@@H](O)[C@@H]1O [sucrose]			no significant difference
O=C(CO)[C@@H](O)[C@H](O)[C@H](O)CO [fructose]	fail to produce the same effect	failed to increase the ATP content	no significant difference
O=C(CO)[C@@H](O)[C@H](O)[C@H](O)COP(=O)(O)O [fructose-6-phosphate]	fail to produce the same effect	failed to increase the ATP content	
